What was measured:
Assay type in all cases: in vivo
Phaedon cochleariae [1] = experiment: Phaedon cochleariae spray test; details: 168 h, application rate 100 g/ha, larvae, after 7 days, read-out: efficacy
Method: (§1) Solvent: 78.0 parts by weight of acetone • • 1.5 parts by weight of dimethylformamide Emulsifier: alkylaryl polyglycol ether To produce a suitable active ingredient formulation, 1 part by weight of active ingredient is dissolved with the specified parts by weight of solvent and made up to the desired concentration with water containing an emulsifier concentration of 1000 ppm. To produce further test concentrations, the formulation is diluted with emulsifier-containing water. Discs of Chinese cabbage leaves (Brassica pekinensis) are sprayed with an active ingredient formulation of the desired concentration and, after drying, populated with larvae of the mustard beetle (Phaedon cochleariae). After 7 days, the efficacy in % is determined. 100% means that all the beetle larvae have been killed; 0% means that no beetle larvae have been killed.

Lucilia cuprina = Lucilia cuprina test; details: 48 h, application rate 100 ppm, L1 larvae, after 2 days, read-out: efficacy (kill)
Method: Solvent: dimethyl sulfoxide To produce a suitable active ingredient formulation, 10 mg of active ingredient are mixed with 0.5 ml of dimethyl sulfoxide, and the concentrate is diluted with water to the desired concentration. About 20 L1 larvae of the Australian sheep blowfly (Lucilia cuprina) are transferred into a test vessel containing minced horsemeat and the active ingredient formulation of the desired concentration. After 2 days, the kill in % is determined. 100% means that all the larvae have been killed; 0% means that no larvae have been killed.

Myzus persicae [2] = experiment: Myzus persicae spray test; details: foliar, 120 h, Chinese cabbage leaf discs, after 5 days, read-out: efficacy; for pest or weed control at 20 g/ha: application rate 20 g/ha; for pest or weed control at 100 g/ha: application rate 100 g/ha
Method: as §1, with “78” for “78.0”, “pekinensis) infested by all stages of the green peach aphid (Myzus persicae)” for “pekinensis)”, “concentration.” for “concentration and, after drying, populated with larvae of the mustard beetle (Phaedon cochleariae).”, “5” for “7”, “aphids” for “beetle larvae”

Ctenocephalides felis [3] = experiment: Ctenocephalides felis in vitro contact test with adult cat fleas; details: application rate 5 μg/cm^2 (=500 g/ha), after 48 h, adult cat fleas dead or moribund, read-out: efficacy
Method: For the coating of the test tubes, 9 mg of active ingredient are first dissolved in 1 ml of acetone p.a. and then diluted to the desired concentration with acetone p.a. 250 μl of the solution are distributed homogeneously on the inner walls and the base of a 25 ml glass tube by turning and rocking on an orbital shaker (rocking rotation at 30 rpm for 2 h). With 900 ppm of active ingredient solution and internal surface area 44.7 cm^2, given homogeneous distribution, an area-based dose of 5 μg/cm^2 is achieved. After the solvent has evaporated off, the tubes are populated with 5-10 adult cat fleas (Ctenocephalides felis), sealed with a perforated plastic lid and incubated in a horizontal position at room temperature and ambient humidity. After 48 h, efficacy is determined. To this end, the tubes are stood upright and the fleas are knocked to the base of the tube. Fleas which remain motionless at the base or move in an uncoordinated manner are considered to be dead or moribund. […] 100% efficacy means that all the fleas were dead or moribund. 0% efficacy means that no fleas were harmed.

Meloidogyne incognita = Meloidogyne incognita test; details: 336 h, application rate 20 ppm, formation of galls on lettuce after 14 days, read-out: nematicidal efficacy
Method: Solvent: 125.0 parts by weight of acetone To produce a suitable active ingredient formulation, 1 part by weight of active ingredient is mixed with the stated amount of solvent and the concentrate is diluted to the desired concentration with water. Vessels are filled with sand, active ingredient solution, an egg/larvae suspension of the southern root-knot nematode (Meloidogyne incognita) and lettuce seeds. The lettuce seeds germinate and the plants develop. The galls develop on the roots. After 14 days, the nematicidal efficacy in % is determined by the formation of galls. 100% means that no galls were found; 0% means that the number of galls on the treated plants corresponds to the untreated control.

Nilaparvata lugens = Nilaparvata lugens spray test (NILALU); details: 96 h, 4 dat, read-out: % efficacy
Method: Solvent: 52.5 parts by weight of acetone • 7 parts by weight of dimethylformamide
Emulsifier: alkylaryl polyglycol ether
To produce an appropriate active ingredient formulation, 1 part by weight of active ingredient is dissolved with the stated parts by weight of solvent and made up with water containing an emulsifier concentration of 1000 ppm until the desired concentration is attained. For production of further test concentrations, the mixture is diluted with emulsifier-containing water. If addition of ammonium salts or/and penetrants is required, these are each added to the preparation solution in a concentration of 1000 ppm.
Rice plants (Oryza sativa) are sprayed with an active ingredient formulation of the desired concentration and then populated with larvae of the rice cicada (Nilaparvata lugens).
After the desired time, the efficacy in % is determined. 100% means that all rice cicadas have been killed; 0% means that no rice cicadas have been killed.

Ctenocephalides felis [4] = experiment: Ctenocephalides felis oral test; details: 48 h, application rate 100 ppm in citrated cattle blood, after 2 days, read-out: efficacy (kill)
Method: Solvent: dimethyl sulfoxide To produce a suitable active ingredient formulation, 10 mg of active ingredient are mixed with 0.5 ml of dimethyl sulfoxide. Dilution with citrated cattle blood gives the desired concentration. About 20 unfed adult cat fleas (Ctenocephalides felis) are placed into a chamber which is closed at the top and bottom with gauze. A metal cylinder whose bottom end is closed with parafilm is placed onto the chamber. The cylinder contains the blood/active ingredient formulation, which can be imbibed by the fleas through the parafilm membrane. After 2 days, the kill in % is determined. 100% means that all of the fleas have been killed; 0% means that none of the fleas have been killed.

Myzus persicae [5] = experiment: Myzus persicae oral test; details: 120 h, after 5 days, read-out: efficacy; for pest or weed control at 0.8 ppm: application rate 0.8 ppm; for pest or weed control at 4 ppm: application rate 4 ppm
Method: Solvent: 100 parts by weight of acetone To produce a suitable active ingredient formulation, 1 part by weight of active ingredient is dissolved with the stated parts by weight of solvent and made up to the desired concentration with water. 50 μl of the active ingredient preparation are transferred into microtitre plates and made up to a final volume of 200 μl with 150 μl of IPL41 insect medium (33%+15% sugar). Subsequently, the plates are sealed with parafilm, which a mixed population of green peach aphids (Myzus persicae) within a second microtitre plate is able to puncture and imbibe the solution. After 5 days, the efficacy in % is determined. 100% means that all the aphids have been killed; 0% means that no aphids have been killed.

Myzus persicae [6] = experiment: Myzus persicae spray test (MYZUPE S), bell pepper plants; details: 144 h, 6 dat, read-out: % efficacy
Method: Solvent: 14 parts by weight of dimethylformamide Emulsifier: alkylaryl polyglycol ether To produce an appropriate active ingredient formulation, 1 part by weight of active ingredient is dissolved with the stated parts by weight of solvent and made up with water containing an emulsifier concentration of 1000 ppm until the desired concentration is attained. For production of further test concentrations, the mixture is diluted with emulsifier-containing water. If addition of ammonium salts or/and penetrants is required, these are each added to the preparation solution in a concentration of 1000 ppm. Bell pepper plants (Capsicum annuum) severely infested by the green peach aphid (Myzus persicae) are treated by spraying with the active ingredient formulation in the desired concentration. After the desired time, the kill in % is determined. 100% means that all animals have been killed; 0% means that no animals have been killed.

Boophilus microplus = Boophilus microplus injection test; details: application rate 20 μg/animal, laying of fertile eggs assessed after 7 days
Method: Solvent: dimethyl sulfoxide To produce a suitable active ingredient formulation, 10 mg of active ingredient are mixed with 0.5 ml of solvent and the concentrate is diluted to the desired concentration with solvent. 1 μl of the active ingredient solution is injected into the abdomen of 5 engorged adult female cattle ticks (Boophilus microplus). The animals are transferred into dishes and kept in a climate-controlled room. Efficacy is assessed after 7 days by laying of fertile eggs. Eggs which are not visibly fertile are stored in a climate-controlled cabinet until the larvae hatch after about 42 days. An efficacy of 100% means that none of the ticks has laid any fertile eggs; 0% means that all the eggs are fertile.

Phaedon cochleariae [7] = experiment: Phaedon cochleariae spray test (PHAECO), contrastive examples; details: 168 h, 7 dat, read-out: % efficacy
Method: Solvent: 78.0 parts by weight of acetone • • 1.5 parts by weight of dimethylformamide Emulsifier: alkylaryl polyglycol ether To produce an appropriate active ingredient formulation, 1 part by weight of active ingredient is dissolved with the stated parts by weight of solvent and made up with water containing an emulsifier concentration of 1000 ppm until the desired concentration is attained. For production of further test concentrations, the mixture is diluted with emulsifier-containing water. Discs of chinese cabbage leaves (Brassica pekinensis) are sprayed with an active ingredient formulation of the desired concentration and, after drying, populated with larvae of the mustard beetle (Phaedon cochleariae). After the desired time, the efficacy in % is determined. 100% means that all beetle larvae have been killed; 0% means that no beetle larvae have been killed.

Myzus persicae [8] = experiment: Myzus persicae spray test (MYZUPE), contrastive examples; details: 120 h, 5 dat, read-out: % efficacy
Method: as §1, with “chinese” for “Chinese”, “pekinensis) infested by all stages of the green peach aphid (Myzus persicae)” for “pekinensis)”, “concentration. After” for “concentration and, after drying, populated with larvae of”, “desired time,” for “mustard beetle (Phaedon cochleariae). After 7 days,”, “aphids” for “the beetle larvae”, “aphids” for “beetle larvae”

CCS(=O)(=O)c1ccc(N(C)C(=O)NC)nc1-c1nc2cc(C(F)(F)F)nnc2n1C [Example I-3]
pest or weed control at 100 g/ha (Phaedon cochleariae [1]): 100%
pest or weed control at 100 ppm (Lucilia cuprina): 90%
pest or weed control at 20 g/ha (Myzus persicae [2]): 100%
pest or weed control at 5 µg/cm2, 500 g/ha (Ctenocephalides felis [3]): 100%
pest or weed control at 20 ppm (Meloidogyne incognita): 100%
Emax at 4 g/ha (Nilaparvata lugens): 70%
pest or weed control at 100 ppm (Ctenocephalides felis [4]): 100%
pest or weed control at 0.8 ppm (Myzus persicae [5]): 100%
pest or weed control at 4 ppm (Myzus persicae [5]): 100%

CNC(=O)N(C)c1ccc(S(C)(=O)=O)c(-c2nc3cc(C(F)(F)F)nnc3n2C)n1 [Example I-6]
Emax at 0.8 ppm (Myzus persicae [6]): 85%
pest or weed control at 100 g/ha (Myzus persicae [2]): 90%
efficacy (Boophilus microplus): 80%
pest or weed control at 100 ppm (Ctenocephalides felis [4]): 100%
pest or weed control at 0.8 ppm (Myzus persicae [5]): 100%
pest or weed control at 4 ppm (Myzus persicae [5]): 100%

CCS(=O)(=O)c1ccc(NC(=O)N(C)C)nc1-c1nc2cc(C(F)(F)F)nnc2n1C [Example I-2]
pest or weed control at 100 g/ha (Phaedon cochleariae [1]): 100%
pest or weed control at 100 ppm (Lucilia cuprina): 100%
Emax at 0.8 ppm (Myzus persicae [6]): 90%
pest or weed control at 20 g/ha (Myzus persicae [2]): 100%
pest or weed control at 100 g/ha (Myzus persicae [2]): 90%
Emax at 20 g/ha (Phaedon cochleariae [7]): 83%
Emax at 100 g/ha (Phaedon cochleariae [7]): 100%
pest or weed control at 5 µg/cm2, 500 g/ha (Ctenocephalides felis [3]): 100%
pest or weed control at 20 ppm (Meloidogyne incognita): 100%
pest or weed control at 100 ppm (Ctenocephalides felis [4]): 100%
pest or weed control at 0.8 ppm (Myzus persicae [5]): 100%
pest or weed control at 4 ppm (Myzus persicae [5]): 100%

CCS(=O)(=O)c1ccc(NC(=O)NC)nc1-c1nc2cc(C(F)(F)F)nnc2n1C [Example I-1, 1-{5-(ethylsulfonyl)-6-[7-methyl-3-(trifluoromethyl)-7H-imidazo[4,5-c]pyridazin-6-yl]pyridin-2-yl}-3-methylurea]
pest or weed control at 100 g/ha (Phaedon cochleariae [1]): 100%
pest or weed control at 100 ppm (Lucilia cuprina): 100%
Emax at 0.8 ppm (Myzus persicae [6]): 70%
Emax at 4 g/ha (Myzus persicae [8]): 90%
pest or weed control at 20 g/ha (Myzus persicae [2]): 90%
pest or weed control at 100 g/ha (Myzus persicae [2]): 100%
Emax at 4 g/ha (Phaedon cochleariae [7]; 4 g/ha): 67%
Emax at 20 g/ha (Phaedon cochleariae [7]): 83%
Emax at 100 g/ha (Phaedon cochleariae [7]): 100%
pest or weed control at 5 µg/cm2, 500 g/ha (Ctenocephalides felis [3]): 100%
pest or weed control at 20 ppm (Meloidogyne incognita): 100%
pest or weed control at 100 ppm (Ctenocephalides felis [4]): 100%
pest or weed control at 0.8 ppm (Myzus persicae [5]): 90%
pest or weed control at 4 ppm (Myzus persicae [5]): 100%

— patent US11505553B2, “2-(Het)aryl-substituted fused heterocycle derivatives as pesticides” (Bayer Aktiengesellschaft, priority 2017, dated 2022)
